Earlier results, collected in patent US20130324521A1, “IMPLANT FOR TREATING OR PREVENTING AN ANEURYSM” (priority 2010, published 2013).

**Q.** Which “tolerability of oral administration” value (oral administration) does the source give for `Cn1cncc1[C@@](N)(c1ccc(Cl)cc1)c1ccc2c(c1)c(-c1cccc(Cl)c1)cc(=O)n2C` [R11577, Tipifarnib] here?
**A.** tolerated well

**Q.** And the toxicity (use as accredited therapeutic agent in oncological therapy)?
**A.** low toxicity
